Earlier results as cited in US20060211662A1, “Combination therapy for topical application in the treatment of age-related macular degeneration and ocular hypertension” (priority 2005, published 2006).

Columns and labels:
[1] = for anabolic activity relative to standards: relative to standards (typically testosterone)
[2] = for androgenic (virilizing) activity relative to standards: relative to standards (typically testosterone)

Row | SMILES | anabolic activity relative to standards [1] | androgenic (virilizing) activity relative to standards [2] | anabolic activity as percent of methyltestosterone ([1]; relative to methyltestosterone) [%] | androgenic activity as percent of methyltestosterone ([2]; relative to methyltestosterone) [%]
1 | CCC(=O)O[C@H]1CC[C@H]2[C@@H]3CCC4=CC(=O)CC[C@@H]4[C@H]3CC[C@]12C [19-nortestosterone propionate] | unchanged | decreased |  | 
2 | C[C@]12CCC(=O)C[C@@H]1CC[C@@H]1[C@@H]2CC[C@]2(C)[C@@H](O)CC[C@@H]12 [dihydrotestosterone] | enhanced | unchanged |  | 
3 | C[C@]1(O)CC[C@H]2[C@@H]3CCC4=CC(=O)CC[C@]4(C)[C@@]3(F)[C@@H](O)C[C@@]21C [fluoxymesterone] | even larger increase | augmented |  | 
4 | C[C@]12COC(=O)C[C@@H]1CC[C@@H]1[C@@H]2CC[C@@]2(C)[C@H]1CC[C@]2(C)O [oxandrolone, 17 alpha-methyl-17β-hydroxy-2-oxa-5 alpha-androstan-3-one] | increased | decreased | 322 | 24
5 | C[C@]12C/C(=C/O)C(=O)C[C@@H]1CC[C@@H]1[C@@H]2CC[C@@]2(C)[C@H]1CC[C@]2(C)O [oxymetholone] | enhanced | unchanged |  | 
6 | C[C@]12Cc3c[nH]nc3C[C@@H]1CC[C@@H]1[C@@H]2CC[C@@]2(C)[C@H]1CC[C@]2(C)O [stanozolol] | increased | decreased |  | 
